According to US7056663B2, “Prognostic methods for breast cancer” (California Pacific Medical Center, priority 2001, dated 2006):

System: TRβ1 gene
Experiment: RT-PCR for TRβ1 transcript in breast cancer cell lines after 5-azaC treatment
Format: cell-based
Conditions: MCF7 breast cancer cell line
Excerpt: The region of most common LOH in the experiments described in Example I include the region of the TRβ1 gene. Therefore, we evaluated TRβ1 gene expression in breast cancer cell lines by RT-PCR, using primers encompassing exons 4–7. The primers used for RT-PCR of the TRβ1 transcript were TRβ-F 5′ […] 3′ (forward) (SEQ ID NO:1) and TRβ-R 5′ TGAGCTCCCATTCCTCGTC 3′ (reverse) (SEQ ID NO:2). Presence of a TRβ1 transcript was indicated by the presence of a 500 bp RT-PCR product using template mRNA isolated from non-cancerous or breast cancer cell lines. As a control, corresponding GAPDH transcript levels for each sample was measured within the same PCR reaction mixture by amplifying a 250 bp fragment using the following primers 5′ […] 3′ (forward) (SEQ ID NO:3) and 5′ […] 3′ (reverse) (SEQ ID NO:4). […] Fluorescent in situ hybribization (FISH) analysis was carried out on the cells to determine the copy number of the TRβ1 gene. FISH data is reported as the percentage of cells in which TRβ1 copy number was fewer than the centromeric signal for chromosome 3. The breast cancer cell lines that were used in this study include DU4475, MDA435, SKBR3, MCF7, BT20, MDA157, MDA231, BT474, CAMA1 and T47D. All of these cell lines are available from American Type Culture Collection, Manassas, Va.

Nc1ncn([C@@H]2O[C@H](CO)[C@@H](O)[C@H]2O)c(=O)n1 [5-azaC]
RT-PCR for TRβ1, before versus after 5-aza C treatment: *RT-PCR for MCF7 was the same before and after 5-aza C treatment
